From patent publication US20240058318A1, “DEGRADING PKCB1 TO TREAT CANCER” (Mayo Foundation for Medical Education and Research, priority 2020, published 2024)
“Also recorded” adds a separate entry of the source. Values belong to the compound of their own block, whether it stands above or below them.

How the values were obtained:
[1] = system: PKCβ1, E2F1, and Cyclin D1; assay: Western blot, BT549 and MDAMB436 cells (Example 6); format: cell-based; conditions: 1 μM, 24, 48, 72 hours
Protocol: TNBC BT549 and MDAMB436 cells were cultured in phenol-red free DMEM/F12 medium supplemented with 10% fetal bovine serum (FBS) and 1% AA. On day 1, cells were plated at a density of 2×10^5 BT549 cells or 4×10^5 MDAMB436 cells in a 6-well plate (two wells per treatment). The next day, cells were treated with DMSO, 1 μM Pr-9 (positive control), 1 μM Pr-9-1, 1 μM Pr-9-4, or 1 μM ENDX (negative control). Radioimmunoprecipitation Assay (RIPA) protein lysates were collected 24, 48, and 72 hours after treatment.
For western blot analysis, […] of protein lysates were run on Criterion precast 10% Bis-Tris gel, transferred to PVDF membrane, incubated in TBST-5% milk for one hour, and then incubated overnight with PKCβ1 (SC8049, mouse, 1:200), E2F1 (SC251, mouse, 1:250), Cyclin D1 (CS2978, rabbit, 1:1000), or Actin (Sigma A2228, mouse, 1:10,000 or CS8457, rabbit, 1:2000) primary antibodies in TBST-5% BSA solution. Membranes were washed in TBS-T, incubated for one-hour in HRP-linked anti-rabbit or anti-mouse secondary antibodies in TBST-5% milk, and washed in TBS-T. Bands were developed using west-pico or west-femto chemiluminescent substrate reagents.

MCF7AC1 cells = assay: CV proliferation assay, ER+ MCF7AC1; format: cell-based
Protocol: (§1) Cell proliferation rates were determined using crystal violet assays. One thousand cells per well were plated in 96 well tissue culture plates and treated the following day with a bifunctional compound or control for 7 days in replicates of 8. Cells were fixed with 25% glutaraldehyde for 10 minutes with shaking, washed 5 times with distilled water, stained with a 1% crystal violet solution (solubilized in 25% methanol) for 10 minutes, washed again 5 times and allowed to dry. De-staining was performed using […] sodium citrate in 50% ethanol followed by quantification using a 96 well spectrophotometer set at an absorbance of 550 nm.
as §1, with “using CV” for “using crystal violet”, “assays. Two” for “assays. One”, “thousand (2000) or 4000” for “thousand”, “for 6” for “for 7”, “of 6.” for “of 8.”

[2] = system: Rb-proficient (MDAMB231) and Rb-deficient (BT549 and MDAMB436) TNBC cells; assay: CV proliferation assay, TNBC cells (statements across lines); format: cell-based; conditions: for inhibition of growth of TNBC cells: MDAMB231, BT549, MDAMB436, CV assay; for induction of apoptosis: MDAMB231 and BT549 cells (FIG. 4A and TABLE 1)
Protocol: as §1
as §1, with “using CV” for “using crystal violet”, “assays. Two” for “assays. One”, “thousand (2000) or 4000” for “thousand”, “for 6” for “for 7”, “of 6.” for “of 8.”

MDAMB436 cells = assay: Crystal violet (CV) proliferation assay, MDAMB436; format: cell-based; conditions: MDAMB436 (PKCß1 low, Rb negative), 2000 cells
Protocol: as §1, with “One thousand cells per well were plated in 96 well tissue culture plates and treated the following day with a bifunctional compound or control for 7 days in replicates of 8.” left out

MDAMB231 cells = assay: Crystal violet (CV) proliferation assay, MDAMB231; format: cell-based; conditions: MDAMB231 (PKCß1 high, Rb positive), 2000 cells
Protocol: as §1, with “One thousand cells per well were plated in 96 well tissue culture plates and treated the following day with a bifunctional compound or control for 7 days in replicates of 8.” left out

BT549 cells = assay: Crystal violet (CV) proliferation assay, BT549; format: cell-based; conditions: BT549 (PKCß1 high, Rb negative), 2000 cells
Protocol: as §1, with “One thousand cells per well were plated in 96 well tissue culture plates and treated the following day with a bifunctional compound or control for 7 days in replicates of 8.” left out

KURAMOCHI cells = assay: CV proliferation assay, KURAMOCHI ovarian cancer cells; format: cell-based; conditions: KURAMOSHI (PKCß1 low), 1000 cells/well
Protocol: as §1
(§2) Based on the potent anti-proliferative activity of ENDX-PROTACs TC-Pr-006, TC-Pr-007, TC-Pr -008, and TC-Pr -009 in TNBC cells, the efficacy of these compounds for inhibiting the growth of ovarian cancer cells was tested. This analysis utilized KURAMOCHI cells, which represent the high-grade serous subtype (the most malignant form that accounts for 70% of all ovarian cancers and associates with poor clinical outcome) and MDAH-2774 cells, which represent endometrioid ovarian cancer and accounts for 20% of all ovarian cancer. PKCβ1 was confirmed to be expressed in both ovarian cancer cell line models, with MDAH-2774 cells expressing higher amounts of PKCβ1 compared to KURAMOCHI cells (FIG. 5A).

MDAH-2774 cells = assay: CV proliferation assay, MDAH-2774 ovarian cancer cells; format: cell-based; conditions: MDAH-2774 (PKCß1 high), 1000 cells/well
Protocol: as §1, §2

PKCβ1 = molecular target: T1, PKCβ1 (Homo sapiens, UniProt P05771); assay: Western blot, PKCβ1 expression in MCF7AC1 cells; format: cell-based; conditions: 1 μM, within 72 hours, drugs replenished every 24 hours
T1 construct: western blots showing expression of PKCβ1 in MCF7AC1 cells treated with 1 μM concentration of the ENDX-PROTACs or ENDX; endogenous in cells; host or cells: MCF7AC1 (ER+ breast cancer cells)
T1 sequence (P05771 whole entry): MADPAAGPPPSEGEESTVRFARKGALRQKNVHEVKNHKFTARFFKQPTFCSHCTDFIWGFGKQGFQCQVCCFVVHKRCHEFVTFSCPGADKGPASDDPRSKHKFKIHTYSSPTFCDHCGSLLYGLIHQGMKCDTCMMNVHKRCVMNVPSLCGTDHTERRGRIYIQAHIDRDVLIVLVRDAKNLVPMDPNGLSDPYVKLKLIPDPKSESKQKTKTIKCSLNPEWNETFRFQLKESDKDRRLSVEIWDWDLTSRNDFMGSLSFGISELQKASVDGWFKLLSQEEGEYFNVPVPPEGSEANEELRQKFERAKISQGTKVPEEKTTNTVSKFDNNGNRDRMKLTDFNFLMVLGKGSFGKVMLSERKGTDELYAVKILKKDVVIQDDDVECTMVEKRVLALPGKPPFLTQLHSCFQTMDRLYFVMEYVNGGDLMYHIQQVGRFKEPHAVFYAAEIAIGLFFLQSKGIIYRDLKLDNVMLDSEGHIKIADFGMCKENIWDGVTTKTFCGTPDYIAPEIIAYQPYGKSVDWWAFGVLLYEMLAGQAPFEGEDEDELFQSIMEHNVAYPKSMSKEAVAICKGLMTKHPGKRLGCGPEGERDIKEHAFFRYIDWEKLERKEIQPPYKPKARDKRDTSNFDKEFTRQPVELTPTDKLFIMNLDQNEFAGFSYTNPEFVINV
Protocol: For western blotting analysis, cells were treated with vehicle (DMSO) or 1 μM of the indicated ENDX-PROTAC's or parent drug ENDX for 24, 48 and 72 hours with the drugs replenished every 24 hours. 25 μg of protein lysates were run on 10% Bis-Tris XT Criterion precast SDS-PAGE gels and transferred on to PVDF membrane. Following blocking with TB ST-5% milk, the membranes were probed with primary antibodies (1:500 — 1:2000 dilutions) for PKCβ1 (Abcam #136917), ERα (SC #8002), E2F1 (SC #251) and Actin (CS#8457) in TBST-5% BSA and secondary antibodies (1:2000 dilution) in TBST-5% milk. Membranes were developed using chemiluminescent WestPico or WestFemto detection solutions on the Li-Cor Imaging system.

[3] = Pharmacokinetics in mice, plasma by UPLC-MS/MS; format: in vivo, female CD1 mice; conditions: for Concentration ENDX PROTAC 9: PO 10 mg/kg, mouse plasma, individual samples
Protocol: ENDX PROTAC 7 and PROTAC 9 pharmacokinetics were characterized in female CD1 mice. Blood samples were collected from mice anesthetized under isoflurane via retro-orbital eye bleed into tubes containing EDTA and immediately chilled on ice. NaF was added to the EDTA collection tubes to help stabilize the drug in whole blood for the second IV and IP studies with ENDX PROTAC 9, and for the IV and oral studies with PROTAC 7. Plasma and red blood cells were separated immediately by centrifugation in a refrigerated centrifuge at 4° C. The plasma was transferred to a separate tube and immediately frozen at −20° C.
For IV dosing, ENDX PROTAC 9 was dissolved in 10% DMSO, 10% PEG 400, and 80% normal saline for a final concentration of 0.2 mg/mL ENDX PROTAC 9 for the 1 mg/kg IV doses. ENDX PROAC 7 was dissolved in 15% DMSO, 9.44% PEG400, and […] normal saline for a final concentration of 0.19 mg/mL for the 1 mg/kg IV doses. Blood samples (3 mice per time-point) were collected 5 minutes, 15 minutes, 0.5 hour, 1 hour, 2 hours, 4 hours, 8 hours, and 24 hours after administration of the ENDX PROTAC. A second IV study was performed for ENDX PROTAC 9 in which blood samples (3 mice per time-point) were collected 5 minutes, 15 minutes, 1 hour, and 2 hours after administration of ENDX PROTAC 9. For oral dosing, ENDX PROTAC 9 (10 mg/kg) and ENDX PROTAC 7 (10 mg/kg) were suspended in 1 mM ascorbic acid:PEG400, 1:1 v/v for a final concentration of 1.0 mg/mL ENDX PROTAC. Blood samples (three mice per time-point) were collected 15 minutes, 0.5 hour, 1 hour, 2 hours, 4 hours, 6 hours, 8 hours, and 24 hours after administering the ENDX PROTAC. For LP. dosing, ENDX PROTAC 9 (4 mg/kg) was prepared in 1 mM ascorbic acid:PEG400, 1:1 v/v for a final concentration of 0.4 mg/mL ENDX PROTAC 9. Blood samples (three mice per time-point) were collected 15 minutes, 0.5 hour, 1 hour, 2 hours, 4 hours, 6 hours, 8 hours, and 24 hours after administration. Plasma concentrations of ENDX PROTAC 7 and 9 were measured using UPLC-MS/MS.

SMILES: CC/C(=C(\c1ccc(O)cc1)c1ccc(OCCN(C)C(=O)COCCOCCN(C)C(=O)Cc2ccc3c(c2)CN(C2CCC(=O)NC2=O)C3=O)cc1)c1ccccc1 (stereo not shown) [Pr-9-1]
- impact on PKCβ1, E2F1, and Cyclin D1 protein expression [1]: lack of impact
- inhibition of growth of ER+ MCF7AC1 cells (MCF7AC1 cells): inhibited growth of ER+ MCF7AC1 cells
- inhibition of growth of TNBC cells [2]: did not inhibit growth of MDAMB231, BT549, or MDAMB436 TNBC cells as effectively

SMILES: CC/C(=C(\c1ccc(O)cc1)c1ccc(OCCN(C)C(=O)COCCO[C@@H]2CCN(C(=O)Cc3ccc4c(c3)CN(C3CCC(=O)NC3=O)C4=O)C2)cc1)c1ccccc1 (stereo partly shown) [Pr-9-4]
- impact on PKCβ1, E2F1, and Cyclin D1 protein expression [1]: lack of impact
- inhibition of growth of ER+ MCF7AC1 cells (MCF7AC1 cells): inhibited growth of ER+ MCF7AC1 cells
- inhibition of growth of TNBC cells [2]: did not inhibit growth of MDAMB231, BT549, or MDAMB436 TNBC cells as effectively

SMILES: CC/C(=C(\c1ccc(O)cc1)c1ccc(OCCN(C)C(=O)CCOCCNC(=O)c2cccc3c2CN([C@H]2CCC(=O)NC2=O)C3=O)cc1)c1ccccc1 [TC-Pr-002]
- IC50 (result in words) (MDAMB436 cells): No major killing
- IC50 (result in words) (MDAMB231 cells): No major killing
- IC50 (result in words) (BT549 cells): No major killing

SMILES: CC/C(=C(\c1ccc(O)cc1)c1ccc(OCCN(C)C(=O)COCCOCCNC(=O)c2cccc3c2CN([C@H]2CCC(=O)NC2=O)C3=O)cc1)c1ccccc1 [TC-Pr-003]
- IC50 (result in words) (MDAMB436 cells): No major killing
- IC50 (result in words) (MDAMB231 cells): No major killing
- Approximate IC50 (result in words) (KURAMOCHI cells): No killing
- Approximate IC50 (result in words) (MDAH-2774 cells): No killing
- IC50 (result in words) (BT549 cells): No major killing

SMILES: CC/C(=C(\c1ccc(O)cc1)c1ccc(OCCN(C)C(=O)CCOCCNC(=O)Cc2ccc3c(c2)CN([C@H]2CCC(=O)NC2=O)C3=O)cc1)c1ccccc1 [TC-Pr-008]
- PKCβ1 polypeptide degradation (PKCβ1): rapidly degraded PKCβ1 polypeptides
- IC50 (MDAMB436 cells): 74 nM
- IC50 (MDAMB231 cells): 131 nM
- IC50 (BT549 cells): 225 nM
- induction of apoptosis [2]: induced apoptosis

SMILES: CCC(=C(c1ccc(O)cc1)c1ccc(OCCN(C)C(=O)COCCOCCNC(=O)Cc2ccc3c(c2)CN(C2CCC(=O)NC2=O)C3=O)cc1)c1ccccc1 (stereo not shown) [TC-Pr-009, 2-[2-(2-2-[2-(2,6-dioxopiperidin-3-yl)-1-oxo-2,3-dihydro-1H-isoindo1-5-yl]acetamidoethoxy)ethoxy]-N-(2-4-[1-(4-hydroxyphenyl)-2-phenylbut-1-en-1-yl]phenoxyethyl)-N-methylacetamide]
- PKCβ1 polypeptide degradation (PKCβ1): rapidly degraded PKCβ1 polypeptides
- PKCβ1 protein levels [1]: altered to varying extent
- protein levels of E2F1 and Cyclin D1 ([1]; listed as Pr-9): clearly reduced by 48 hours; also recorded: reduced protein levels
- Concentration ENDX PROTAC 9 ([3]; 120 minutes, listed as ENDX PROTAC 9, 10 mg/kg): BLD*
- Concentration ENDX PROTAC 9 ([3]; 360 minutes, listed as ENDX PROTAC 9, 10 mg/kg): BLD
- Concentration ENDX PROTAC 9 ([3]; 480 minutes, listed as ENDX PROTAC 9, 10 mg/kg): BLD
- Concentration ENDX PROTAC 9 ([3]; 1440 minutes): BLD
- time of peak plasma concentration ([3]; mice, I.V. 1 mg/kg, second study, NaF added to EDTA tubes): 5 min
- stability in whole blood ([3]; mouse whole blood, comparison of IV studies with and without NaF): unstable in whole blood
- induction of apoptosis [2]: induced apoptosis

Now from value to compound, other results behind:

- IC50 (MDAMB436 cells): 10000 nM
SMILES: CC/C(=C(\c1ccc(O)cc1)c1ccc(OCCN(C)C(=O)COCCNC(=O)c2cccc3c2CN([C@H]2CCC(=O)NC2=O)C3=O)cc1)c1ccccc1 [TC-Pr-001]
- IC50 (result in words) (MDAMB231 cells): No major killing
- IC50 (result in words) (BT549 cells): No major killing

- IC50 (MDAMB436 cells): 10000 nM
SMILES: CC/C(=C(\c1ccc(O)cc1)c1ccc(OCCN(C)C(=O)COCCNC(=O)c2ccc3c(c2)CN([C@H]2CCC(=O)NC2=O)C3=O)cc1)c1ccccc1 [TC-Pr-004]
- IC50 (result in words) (MDAMB231 cells): No major killing
- IC50 (result in words) (BT549 cells): No major killing,

- IC50 (MDAMB436 cells): 100 to 1000 nM
- IC50 (MDAMB231 cells): > 10000 nM
- IC50 (BT549 cells): > 10000 nM
SMILES: CC/C(=C(\c1ccc(O)cc1)c1ccc(OCCN(C)C(=O)CCOCCNC(=O)c2ccc3c(c2)CN([C@H]2CCC(=O)NC2=O)C3=O)cc1)c1ccccc1 [TC-Pr-005]

- IC50 (MDAMB436 cells): 333 nM
- IC50 (MDAMB231 cells): 532 nM
- IC50 (KURAMOCHI cells; read-out: Approximate IC50): > 10000 nM
- IC50 (MDAH-2774 cells; read-out: Approximate IC50): > 10000 nM
- IC50 (BT549 cells): 482 nM
SMILES: CC/C(=C(\c1ccc(O)cc1)c1ccc(OCCN(C)C(=O)COCCOCCNC(=O)c2ccc3c(c2)CN([C@H]2CCC(=O)NC2=O)C3=O)cc1)c1ccccc1 [TC-Pr-006]
